Source: ChEMBL document CHEMBL4507297, “Data for DCP probe PF-04457845” (2021)
pKi: −log10 of the molar value.

Legend:
[1] = molecular target: Sigma intracellular receptor 2 (Homo sapiens, UniProt Q5BJF2); test: GPCRScan assay: inhibition of Sigma 2; parameters: radioligand conc. used [nm] 5.0, parental cells HEKT
[2] = system: Tyrosine-protein kinase ABL1 (Homo sapiens), P00519 [Q252H]; details: Compound concentration 1000.0 nM
[3] = molecular target: ALK tyrosine kinase receptor (Homo sapiens) (UniProt Q9UM73); details: Compound concentration 1000.0 nM
[4] = molecular target: Ankyrin repeat and protein kinase domain-containing protein 1 (Homo sapiens) (UniProt Q8NFD2); details: Compound concentration 1000.0 nM
[5] = molecular target: Cytoplasmic tyrosine-protein kinase BMX (Homo sapiens) (UniProt P51813); details: Compound concentration 1000.0 nM
[6] = molecular target: Calcium/calmodulin-dependent protein kinase type 1 (Homo sapiens) (UniProt Q14012); details: Compound concentration 1000.0 nM
[7] = molecular target: Calcium/calmodulin-dependent protein kinase type II subunit gamma (Homo sapiens) (UniProt Q13555); details: Compound concentration 1000.0 nM
[8] = molecular target: Calcium/calmodulin-dependent protein kinase kinase 1 (Homo sapiens) (UniProt Q8N5S9); details: Compound concentration 1000.0 nM
[9] = molecular target: Calcium/calmodulin-dependent protein kinase kinase 2 (Homo sapiens) (UniProt Q96RR4); details: Compound concentration 1000.0 nM
[10] = molecular target: Megakaryocyte-associated tyrosine-protein kinase (Homo sapiens) (UniProt P42679); details: Compound concentration 1000.0 nM
[11] = molecular target: Dual specificity tyrosine-phosphorylation-regulated kinase 1B (Homo sapiens) (UniProt Q9Y463); details: Compound concentration 1000.0 nM
[12] = system: Epidermal growth factor receptor (Homo sapiens), P00533 [G719C]; details: Compound concentration 1000.0 nM
[13] = system: Epidermal growth factor receptor (Homo sapiens), P00533 [UNDEFINED MUTATION]; details: Compound concentration 1000.0 nM
[14] = system: Epidermal growth factor receptor (Homo sapiens), P00533 [L858R,T790M]; details: Compound concentration 1000.0 nM
[15] = molecular target: Ephrin type-A receptor 7 (Homo sapiens) (UniProt Q15375); details: Compound concentration 1000.0 nM
[16] = molecular target: Receptor-type tyrosine-protein kinase FLT3 (Homo sapiens) (UniProt P36888); details: Compound concentration 1000.0 nM
[17] = molecular target: Inhibitor of nuclear factor kappa-B kinase subunit beta (Homo sapiens) (UniProt O14920); details: Compound concentration 1000.0 nM
[18] = molecular target: Tyrosine-protein kinase JAK1 (Homo sapiens) (UniProt P23458); details: Compound concentration 1000.0 nM
[19] = system: Mast/stem cell growth factor receptor Kit (Homo sapiens), P10721 [A829P]; details: Compound concentration 1000.0 nM
[20] = system: Mast/stem cell growth factor receptor Kit (Homo sapiens), P10721 [D816V]; details: Compound concentration 1000.0 nM
[21] = molecular target: Serine/threonine-protein kinase STK11 (Homo sapiens) (UniProt Q15831); details: Compound concentration 1000.0 nM
[22] = molecular target: Hepatocyte growth factor receptor (Homo sapiens) (UniProt P08581); details: Compound concentration 1000.0 nM
[23] = molecular target: Serine/threonine-protein kinase MRCK beta (Homo sapiens) (UniProt Q9Y5S2); details: Compound concentration 1000.0 nM
[24] = molecular target: Serine/threonine-protein kinase 38-like (Homo sapiens) (UniProt Q9Y2H1); details: Compound concentration 1000.0 nM
[25] = system: Phosphatidylinositol 4,5-bisphosphate 3-kinase catalytic subunit alpha isoform (Homo sapiens), P42336 [E542K]; details: Compound concentration 1000.0 nM
[26] = molecular target: Phosphatidylinositol 4-phosphate 5-kinase type-1 gamma (Homo sapiens) (UniProt O60331); details: Compound concentration 1000.0 nM
[27] = molecular target: Phosphatidylinositol 5-phosphate 4-kinase type-2 beta (Homo sapiens) (UniProt P78356); details: Compound concentration 1000.0 nM
[28] = molecular target: Phosphatidylinositol 5-phosphate 4-kinase type-2 gamma (Homo sapiens) (UniProt Q8TBX8); details: Compound concentration 1000.0 nM
[29] = molecular target: Membrane-associated tyrosine- and threonine-specific cdc2-inhibitory kinase (Homo sapiens) (UniProt Q99640); details: Compound concentration 1000.0 nM
[30] = molecular target: Serine/threonine-protein kinase PLK4 (Homo sapiens) (UniProt O00444); details: Compound concentration 1000.0 nM
[31] = molecular target: Protein kinase C epsilon type (Homo sapiens) (UniProt Q02156); details: Compound concentration 1000.0 nM
[32] = molecular target: cGMP-dependent protein kinase 2 (Homo sapiens) (UniProt Q13237); details: Compound concentration 1000.0 nM
[33] = molecular target: Rho-associated protein kinase 2 (Homo sapiens) (UniProt O75116); details: Compound concentration 1000.0 nM
[34] = molecular target: Ribosomal protein S6 kinase alpha-1 (Homo sapiens) (UniProt Q15418); details: Compound concentration 1000.0 nM
[35] = molecular target: Ribosomal protein S6 kinase alpha-3 (Homo sapiens) (UniProt P51812); details: Compound concentration 1000.0 nM
[36] = molecular target: Serine/threonine-protein kinase SBK1 (Homo sapiens) (UniProt Q52WX2); details: Compound concentration 1000.0 nM
[37] = molecular target: Proto-oncogene tyrosine-protein kinase Src (Homo sapiens) (UniProt P12931); details: Compound concentration 1000.0 nM
[38] = molecular target: Phosphatidylinositol 3-kinase catalytic subunit type 3 (Homo sapiens) (UniProt Q8NEB9); details: Compound concentration 1000.0 nM
[39] = molecular target: 5-hydroxytryptamine receptor 1D (Homo sapiens) (UniProt P28221); details: Compound concentration 10.0 uM
[40] = molecular target: D(1A) dopamine receptor (Homo sapiens) (UniProt P21728); details: Compound concentration 10.0 uM
[41] = molecular target: Mu-type opioid receptor (Homo sapiens) (UniProt P35372); details: Compound concentration 10.0 uM
[42] = molecular target: GABA-A receptor; anion channel (Rattus norvegicus) (UniProt O09028+P15431+P18506+P18508+P19969+P20236+P23574+P23576+P28471+P28473+P30191+P62813+P63079+P63138+Q91ZM7+Q9ES14); details: Compound concentration 10.0 uM
[43] = molecular target: Sigma non-opioid intracellular receptor 1 (Homo sapiens, UniProt Q99720); details: Compound concentration 10.0 uM

Sequence of Calcium/calmodulin-dependent protein kinase kinase 2 (Homo sapiens) (Q96RR4 2-588 limits assumed): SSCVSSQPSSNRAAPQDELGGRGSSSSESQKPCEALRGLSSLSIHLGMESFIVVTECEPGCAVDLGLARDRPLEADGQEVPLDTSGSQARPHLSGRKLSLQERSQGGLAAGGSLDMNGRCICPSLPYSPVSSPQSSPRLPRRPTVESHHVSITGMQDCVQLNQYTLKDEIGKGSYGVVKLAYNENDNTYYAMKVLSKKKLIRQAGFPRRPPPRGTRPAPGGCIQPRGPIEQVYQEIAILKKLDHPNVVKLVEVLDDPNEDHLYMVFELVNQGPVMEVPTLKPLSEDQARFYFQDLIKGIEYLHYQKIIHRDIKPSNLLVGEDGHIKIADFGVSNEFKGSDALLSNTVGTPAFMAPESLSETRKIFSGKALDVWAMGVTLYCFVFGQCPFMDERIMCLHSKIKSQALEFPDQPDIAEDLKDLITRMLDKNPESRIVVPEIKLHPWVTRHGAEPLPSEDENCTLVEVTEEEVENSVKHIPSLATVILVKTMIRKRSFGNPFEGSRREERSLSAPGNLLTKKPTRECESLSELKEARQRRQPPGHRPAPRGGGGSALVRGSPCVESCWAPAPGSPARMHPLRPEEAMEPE
Sequence of Ribosomal protein S6 kinase alpha-3 (Homo sapiens) (P51812 whole entry): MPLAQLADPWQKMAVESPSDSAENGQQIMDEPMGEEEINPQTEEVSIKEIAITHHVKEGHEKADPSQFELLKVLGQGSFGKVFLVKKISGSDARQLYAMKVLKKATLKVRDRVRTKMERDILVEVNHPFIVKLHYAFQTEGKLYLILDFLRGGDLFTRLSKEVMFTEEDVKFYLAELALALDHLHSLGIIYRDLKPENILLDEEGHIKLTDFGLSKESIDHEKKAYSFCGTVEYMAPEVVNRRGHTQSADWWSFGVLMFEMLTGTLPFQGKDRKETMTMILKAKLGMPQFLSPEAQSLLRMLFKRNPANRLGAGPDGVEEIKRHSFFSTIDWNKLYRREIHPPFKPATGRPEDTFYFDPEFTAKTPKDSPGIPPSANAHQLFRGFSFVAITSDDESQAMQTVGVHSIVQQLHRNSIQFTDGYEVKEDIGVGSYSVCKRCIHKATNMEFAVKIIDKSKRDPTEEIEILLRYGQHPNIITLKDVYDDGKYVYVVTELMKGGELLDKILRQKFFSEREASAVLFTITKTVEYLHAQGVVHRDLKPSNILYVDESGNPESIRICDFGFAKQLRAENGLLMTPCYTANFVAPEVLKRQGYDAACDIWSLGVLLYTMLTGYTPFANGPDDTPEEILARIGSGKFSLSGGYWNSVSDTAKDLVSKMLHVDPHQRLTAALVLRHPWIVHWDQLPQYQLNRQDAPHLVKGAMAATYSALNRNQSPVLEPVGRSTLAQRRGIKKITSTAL
Sequence of Rho-associated protein kinase 2 (Homo sapiens) (O75116 whole entry, looked up): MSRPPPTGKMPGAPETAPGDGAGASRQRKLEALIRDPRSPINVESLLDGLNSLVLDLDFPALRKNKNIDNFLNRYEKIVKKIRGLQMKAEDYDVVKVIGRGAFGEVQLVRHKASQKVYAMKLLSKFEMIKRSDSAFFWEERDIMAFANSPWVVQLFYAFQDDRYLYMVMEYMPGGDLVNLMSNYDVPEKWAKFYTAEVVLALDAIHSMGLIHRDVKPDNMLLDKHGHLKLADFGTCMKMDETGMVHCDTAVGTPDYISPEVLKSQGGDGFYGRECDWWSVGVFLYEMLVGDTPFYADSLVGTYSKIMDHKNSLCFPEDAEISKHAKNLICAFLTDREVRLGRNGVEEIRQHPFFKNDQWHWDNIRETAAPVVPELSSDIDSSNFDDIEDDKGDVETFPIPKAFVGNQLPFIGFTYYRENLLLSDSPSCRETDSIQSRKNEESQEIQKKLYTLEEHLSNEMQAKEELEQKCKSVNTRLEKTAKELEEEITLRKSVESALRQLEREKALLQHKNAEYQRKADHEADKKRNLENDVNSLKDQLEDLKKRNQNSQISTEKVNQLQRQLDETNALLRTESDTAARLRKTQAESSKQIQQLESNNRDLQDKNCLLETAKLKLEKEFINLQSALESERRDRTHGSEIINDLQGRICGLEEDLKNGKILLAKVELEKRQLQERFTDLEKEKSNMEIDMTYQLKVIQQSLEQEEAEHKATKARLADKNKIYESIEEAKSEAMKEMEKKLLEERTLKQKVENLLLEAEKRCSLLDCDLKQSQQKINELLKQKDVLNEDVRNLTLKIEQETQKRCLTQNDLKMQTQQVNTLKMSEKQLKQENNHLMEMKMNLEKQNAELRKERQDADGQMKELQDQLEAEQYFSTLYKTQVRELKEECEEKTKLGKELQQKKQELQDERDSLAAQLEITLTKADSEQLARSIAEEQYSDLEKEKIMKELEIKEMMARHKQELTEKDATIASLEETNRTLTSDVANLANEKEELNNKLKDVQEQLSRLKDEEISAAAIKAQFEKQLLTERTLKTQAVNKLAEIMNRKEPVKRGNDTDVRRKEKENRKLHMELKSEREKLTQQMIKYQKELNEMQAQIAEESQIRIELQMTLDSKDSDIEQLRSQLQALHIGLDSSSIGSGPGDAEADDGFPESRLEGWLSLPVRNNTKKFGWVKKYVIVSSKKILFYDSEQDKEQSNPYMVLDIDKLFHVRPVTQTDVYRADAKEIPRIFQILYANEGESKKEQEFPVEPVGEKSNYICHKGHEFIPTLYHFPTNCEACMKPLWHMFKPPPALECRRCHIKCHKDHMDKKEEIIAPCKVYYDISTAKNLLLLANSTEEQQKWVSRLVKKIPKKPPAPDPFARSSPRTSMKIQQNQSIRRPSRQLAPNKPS
Sequence of Megakaryocyte-associated tyrosine-protein kinase (Homo sapiens) (P42679 whole entry): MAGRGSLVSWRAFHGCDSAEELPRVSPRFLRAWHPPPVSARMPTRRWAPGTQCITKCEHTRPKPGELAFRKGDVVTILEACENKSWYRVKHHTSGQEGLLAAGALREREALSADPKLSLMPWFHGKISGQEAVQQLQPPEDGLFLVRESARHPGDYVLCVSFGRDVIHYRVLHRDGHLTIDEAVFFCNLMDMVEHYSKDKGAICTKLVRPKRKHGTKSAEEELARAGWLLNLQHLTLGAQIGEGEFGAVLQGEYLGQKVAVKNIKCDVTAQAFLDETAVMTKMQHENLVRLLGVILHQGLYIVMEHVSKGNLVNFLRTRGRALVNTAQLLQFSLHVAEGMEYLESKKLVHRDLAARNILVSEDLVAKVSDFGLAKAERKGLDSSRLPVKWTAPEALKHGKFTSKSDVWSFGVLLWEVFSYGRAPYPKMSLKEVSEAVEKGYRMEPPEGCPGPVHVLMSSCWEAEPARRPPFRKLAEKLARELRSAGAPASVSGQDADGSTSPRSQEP
Sequence of Phosphatidylinositol 3-kinase catalytic subunit type 3 (Homo sapiens) (Q8NEB9 whole entry): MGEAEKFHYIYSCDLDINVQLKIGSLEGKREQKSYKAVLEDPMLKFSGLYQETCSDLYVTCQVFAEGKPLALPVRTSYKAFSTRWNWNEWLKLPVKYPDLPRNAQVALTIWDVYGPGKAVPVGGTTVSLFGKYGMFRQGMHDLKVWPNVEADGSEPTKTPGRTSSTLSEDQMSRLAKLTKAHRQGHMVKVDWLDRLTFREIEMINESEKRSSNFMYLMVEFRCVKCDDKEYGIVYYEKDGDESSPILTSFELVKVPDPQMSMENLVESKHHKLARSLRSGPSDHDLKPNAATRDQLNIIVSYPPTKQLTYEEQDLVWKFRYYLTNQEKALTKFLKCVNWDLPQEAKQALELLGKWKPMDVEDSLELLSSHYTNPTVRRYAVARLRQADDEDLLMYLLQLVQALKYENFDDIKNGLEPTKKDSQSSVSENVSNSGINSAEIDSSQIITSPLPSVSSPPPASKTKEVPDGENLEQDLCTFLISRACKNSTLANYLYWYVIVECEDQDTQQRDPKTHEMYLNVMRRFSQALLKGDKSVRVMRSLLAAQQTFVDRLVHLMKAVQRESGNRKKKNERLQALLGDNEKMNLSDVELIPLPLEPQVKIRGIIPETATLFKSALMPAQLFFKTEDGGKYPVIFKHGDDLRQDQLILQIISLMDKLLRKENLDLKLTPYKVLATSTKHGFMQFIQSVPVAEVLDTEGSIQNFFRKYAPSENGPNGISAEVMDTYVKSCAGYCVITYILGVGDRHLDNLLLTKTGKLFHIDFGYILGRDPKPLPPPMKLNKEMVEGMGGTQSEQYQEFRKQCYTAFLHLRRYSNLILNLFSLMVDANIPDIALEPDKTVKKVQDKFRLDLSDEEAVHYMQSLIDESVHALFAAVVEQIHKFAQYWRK
Sequence of Calcium/calmodulin-dependent protein kinase type II subunit gamma (Homo sapiens) (Q13555 whole entry): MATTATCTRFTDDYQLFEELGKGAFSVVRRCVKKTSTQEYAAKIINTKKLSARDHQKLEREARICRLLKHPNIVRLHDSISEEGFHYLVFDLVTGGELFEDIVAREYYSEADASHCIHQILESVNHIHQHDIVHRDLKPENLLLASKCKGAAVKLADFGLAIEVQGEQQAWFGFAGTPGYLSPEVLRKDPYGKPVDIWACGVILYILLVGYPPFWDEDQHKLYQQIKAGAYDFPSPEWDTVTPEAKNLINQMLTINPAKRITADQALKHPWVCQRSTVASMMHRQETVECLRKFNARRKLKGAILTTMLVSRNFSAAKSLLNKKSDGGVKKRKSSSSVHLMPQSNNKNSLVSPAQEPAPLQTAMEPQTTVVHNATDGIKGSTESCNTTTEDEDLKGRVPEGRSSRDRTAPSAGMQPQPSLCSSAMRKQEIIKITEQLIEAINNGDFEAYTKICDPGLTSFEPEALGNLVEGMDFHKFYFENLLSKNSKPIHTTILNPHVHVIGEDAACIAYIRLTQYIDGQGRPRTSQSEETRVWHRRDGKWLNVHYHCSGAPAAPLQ
Sequence of Calcium/calmodulin-dependent protein kinase type 1 (Homo sapiens) (Q14012 whole entry, looked up): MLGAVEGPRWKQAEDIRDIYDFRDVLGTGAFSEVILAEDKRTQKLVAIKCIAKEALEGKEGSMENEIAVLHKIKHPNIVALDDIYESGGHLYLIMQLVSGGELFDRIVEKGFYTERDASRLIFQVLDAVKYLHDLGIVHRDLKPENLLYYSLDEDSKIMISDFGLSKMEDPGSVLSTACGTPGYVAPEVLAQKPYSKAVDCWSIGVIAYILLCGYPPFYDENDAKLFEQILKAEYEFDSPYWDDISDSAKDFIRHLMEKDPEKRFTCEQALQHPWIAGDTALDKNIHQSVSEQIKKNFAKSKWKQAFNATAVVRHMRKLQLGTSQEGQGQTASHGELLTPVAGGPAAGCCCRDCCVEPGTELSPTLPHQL

O=C(Nc1cccnn1)N1CC(C/C=C/c2cncc(Oc3ccc(C(F)(F)F)cn3)n2)C1
pKi [1]: 5.08 | residual activity [2]: 81% | residual activity [3]: 97% | residual activity [4]: 73% | residual activity [5]: 100% | residual activity [6]: 100% | residual activity [7]: 100% | residual activity [8]: 100% | residual activity [9]: 100% | residual activity [10]: 59% | residual activity [11]: 100% | residual activity [12]: 100% | residual activity [13]: 100% | residual activity [14]: 82% | residual activity [15]: 100% | residual activity [16]: 86% | residual activity [17]: 94% | residual activity [18]: 95% | residual activity [19]: 59% | residual activity [20]: 100% | residual activity [21]: 64% | residual activity [22]: 95% | residual activity [23]: 100% | residual activity [24]: 100% | residual activity [25]: 88% | residual activity [26]: 100% | residual activity [27]: 96% | residual activity [28]: 100% | residual activity [29]: 100% | residual activity [30]: 98% | residual activity [31]: 100% | residual activity [32]: 91% | residual activity [33]: 90% | residual activity [34]: 92% | residual activity [35]: 73% | residual activity [36]: 89% | residual activity [37]: 100% | residual activity [38]: 88% | inhibition [39]: -2.98% | inhibition [40]: 1.14% | inhibition [41]: 1.18% | inhibition [42]: 17.3% | inhibition [43]: 32.2%

O=C(Nc1cccnn1)N1CCC(=Cc2cccc(Oc3ccc(C(F)(F)F)cn3)c2)CC1
pKi [1]: 6.36 | residual activity [2]: 99% | residual activity [3]: 100% | residual activity [4]: 96% | residual activity [5]: 71% | residual activity [6]: 100% | residual activity [7]: 74% | residual activity [8]: 92% | residual activity [9]: 73% | residual activity [10]: 100% | residual activity [11]: 100% | residual activity [12]: 100% | residual activity [13]: 83% | residual activity [14]: 99% | residual activity [15]: 95% | residual activity [16]: 97% | residual activity [17]: 83% | residual activity [18]: 100% | residual activity [19]: 96% | residual activity [20]: 87% | residual activity [21]: 100% | residual activity [22]: 100% | residual activity [23]: 100% | residual activity [24]: 84% | residual activity [25]: 65% | residual activity [26]: 66% | residual activity [27]: 83% | residual activity [28]: 75% | residual activity [29]: 100% | residual activity [30]: 100% | residual activity [31]: 82% | residual activity [32]: 100% | residual activity [33]: 100% | residual activity [34]: 100% | residual activity [35]: 100% | residual activity [36]: 100% | residual activity [37]: 88% | residual activity [38]: 100% | inhibition [39]: 42.1% | inhibition [40]: -3.23% | inhibition [41]: 17.5% | inhibition [42]: 7.35% | inhibition [43]: 88.5%
